Consider twelve compounds from patent publication US8916549B2, “Thienooxazepine derivative” (Takeda Pharmaceutical Company Limited, priority 2009, dated 2014).

Counter-ions that a name gives are not always drawn.

This assay deals with serotonin 5-HT2C receptor (isoform type VSV, stably expressing CHO cell) (Homo sapiens, UniProt P28335, I156V/I160V/N158S). Description: cell-based. As to conditions: read-out: ratio to maximum response by 5-HT (1 μM).
Sequence of serotonin 5-HT2C receptor (isoform type VSV, stably expressing CHO cell) (P28335 33-458 I156V/N158S/I160V limits assumed): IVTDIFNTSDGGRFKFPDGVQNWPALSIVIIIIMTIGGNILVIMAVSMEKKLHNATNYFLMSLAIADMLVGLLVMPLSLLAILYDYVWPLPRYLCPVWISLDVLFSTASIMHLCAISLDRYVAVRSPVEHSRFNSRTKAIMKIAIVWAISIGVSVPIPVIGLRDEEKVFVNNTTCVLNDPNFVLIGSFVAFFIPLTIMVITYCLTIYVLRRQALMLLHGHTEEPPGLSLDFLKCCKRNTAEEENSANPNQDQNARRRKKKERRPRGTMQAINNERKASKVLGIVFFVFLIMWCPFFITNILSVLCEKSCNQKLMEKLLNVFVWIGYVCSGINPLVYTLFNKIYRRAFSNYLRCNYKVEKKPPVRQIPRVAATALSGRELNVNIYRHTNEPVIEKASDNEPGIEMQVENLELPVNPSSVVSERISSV
In the case of `Fc1cccc(-c2csc3c2OCCNC3)c1` [Example 2, 8-(3-fluorophenyl)-2,3,4,5-tetrahydrothieno[2,3-f][1,4]oxazepine 1 hydrochloride], the Emax is 101%.
On to `c1sc2c(c1C1CC1)OCCNC2` [Example 3, 8-cyclopropyl-2,3,4,5-tetrahydrothieno[2,3-f][1,4]oxazepine 1 hydrochloride], for which the Emax was 98%.
Regarding `CC(C)c1csc2c1OCCNC2` [Example 4, 8-(1-methylethyl)-2,3,4,5-tetrahydrothieno[2,3-f][1,4]oxazepine 1 hydrochloride], the Emax was 99%.
`c1sc2c(c1C1CCC1)OCCNC2` [Example 5, 8-cyclobutyl-2,3,4,5-tetrahydrothieno[2,3-f][1,4]oxazepine 1 hydrochloride]: the Emax came to 107%.
Next, `COc1cccc(-c2csc3c2OC(C)CNC3)c1` (stereo not drawn) [Example 6, 8-(3-methoxyphenyl)-2-methyl-2,3,4,5-tetrahydrothieno[2,3-f][1,4]oxazepine 1 hydrochloride]: 97%.
Next, `C[C@H]1CNCc2scc(-c3cccc(F)c3)c2O1` [Example 12, (2S)-8-(3-fluorophenyl)-2-methyl-2,3,4,5-tetrahydrothieno[2,3-f][1,4]oxazepine 1 hydrochloride]: 101%.
Next, `C[C@H]1CNCc2scc(C3CC3)c2O1` [Example 14, (2S)-8-cyclopropyl-2-methyl-2,3,4,5-tetrahydrothieno[2,3-f][1,4]oxazepine 1 hydrochloride]: 100%; `CC(C)c1csc2c1O[C@@H](C)CNC2` [Example 15, (2S)-2-methyl-8-(1-methylethyl)-2,3,4,5-tetrahydrothieno[2,3-f][1,4]oxazepine 1 hydrochloride]: 96%.
Consider `CCCc1csc2c1O[C@@H](C)CNC2` [Example 16, (2S)-2-methyl-8-propyl-2,3,4,5-tetrahydrothieno[2,3-f][1,4]oxazepine 1 hydrochloride], for which the Emax stood at 97%.
For `Cc1sc2c(c1C1CC1)OCCNC2` [Example 17, 8-cyclopropyl-7-methyl-2,3,4,5-tetrahydrothieno[2,3-f][1,4]oxazepine 1 hydrochloride], the Emax was 91%.
The value for `CC(c1csc2c1OCCNC2)C(F)(F)F` (stereo not drawn) [Example 20, 8-(2,2,2-trifluoro-1-methylethyl)-2,3,4,5-tetrahydrothieno[2,3-f][1,4]oxazepine 1 hydrochloride] was 85%; that for `CC(c1csc2c1O[C@@H](C)CNC2)C(F)(F)F` (stereo partly drawn) [Example 21, (2S)-2-methyl-8-(2,2,2-trifluoro-1-methylethyl)-2,3,4,5-tetrahydrothieno[2,3-f][1,4]oxazepine 1 hydrochloride] was 94%.
